The source of these data is patent publication US8735414B2 (priority 2009, dated 2014).

Structures are written as SMILES.

One may read the IC50 as the midpoint of a concentration-inhibition curve. For orientation: melting point means the temperature, or range, at which the solid turns liquid.

For data set [1], the system named is bicistronic HCV replicon (replicon RNA, GenBank Accession No. AJ242654). The data set is described as follows: HCV Replicon Assay. The class given is cell-based. The settings on record: Hepatitis C virus, 72 h, read-out: Replicon IC50. A general note: In antiviral work, replicon cells carry a viral genome segment that copies itself.

`Cc1cc2c(cc1F)c(C#N)c(-c1ccc(S(=O)(=O)N[C@@H](C)C(F)(F)F)cn1)n2-c1ncc(Cl)cn1` [compound 914, 6-[1-(5-chloropyrimidin-2-yl)-3-cyano-5-fluoro-6-methyl-1H-indol-2-yl]-N-[(2S)-1,1,1-trifluoropropan-2-yl]pyridine-3-sulfonamide]: the melting point lay in the range of 213 to 218 °C. For the same compound, in data set [1], the IC50 was less than 500 nM.
The like results for `Cc1cncc(-n2c(-c3ccc(S(=O)(=O)N[C@@H](C)C(F)(F)F)cn3)c(C#N)c3cc(F)c(C)cc32)n1` [compound 915, 6-[3-cyano-5-fluoro-6-methyl-1-(6-methylpyrazin-2-yl)-1H-indol-2-yl]-N-[(2S)-1,1,1-trifluoropropan-2-yl]pyridine-3-sulfonamide] were, in that order, 211 to 215 °C and less than 500 nM.
Regarding `Cc1ccc2c(c1)c(C(N)=O)c(-c1ccc(S(=O)(=O)N[C@@H](C)C(F)(F)F)cn1)n2-c1cnccn1` [compound 916, 5-methyl-1-(pyrazin-2-yl)-2-(5-{[(2S)-1,1,1-trifluoropropan-2-yl]sulfamoyl}pyridin-2-yl)-1H-indole-3-carboxamide], the melting point fell in the range of 240 to 245 °C. For the same compound, in data set [1], the IC50 was less than 500 nM.
For `Cc1cc2c(C#N)c(-c3ccc(S(=O)(=O)N[C@@H](C)C(F)(F)F)cn3)n(-c3ccccn3)c2cc1F` [compound 917, 6-[3-cyano-6-fluoro-5-methyl-1-(pyridin-2-yl)-1H-indol-2-yl]-N-[(2S)-1,1,1-trifluoropropan-2-yl]pyridine-3-sulfonamide] the same measures were 175 to 180 °C and less than 500 nM.
`Cc1cc2c(C(N)=O)c(-c3ccc(S(=O)(=O)N[C@@H](C)C(F)(F)F)cn3)n(-c3ncccn3)c2cc1F` [compound 918, 6-fluoro-5-methyl-1-(pyrimidin-2-yl)-2-(5-{[(2S)-1,1,1-trifluoropropan-2-yl]sulfamoyl}pyridin-2-yl)-1H-indole-3-carboxamide] registered a melting point of 245 to 249 °C. In data set [1], the half-inhibitory concentration (IC50) lay within 2000 to 5000 nM.
Compound `Cc1cc2c(C#N)c(-c3ccc(S(=O)(=O)N[C@@H](C)C(F)(F)F)cn3)n(-c3cnccn3)c2cc1F` [compound 919, 6-[3-cyano-6-fluoro-5-methyl-1-(pyrazin-2-yl)-1H-indol-2-yl]-N-[(2S)-1,1,1-trifluoropropan-2-yl]pyridine-3-sulfonamide] gave a melting point of 233 to 238 °C. The IC50 in data set [1] is less than 500 nM.
For the compound `Cc1ccc2c(c1)c(C#N)c(-c1ccc(S(=O)(=O)N[C@@H](C)C(F)(F)F)cn1)n2-c1ccc(F)cc1` [compound 920, 6-[3-cyano-1-(4-fluorophenyl)-5-methyl-1H-indol-2-yl]-N-[(2S)-1,1,1-trifluoropropan-2-yl]pyridine-3-sulfonamide], the melting point lay within 195 to 200 °C. For the same compound, the IC50 in data set [1] is less than 500 nM.
Take `Cc1ccc2c(c1)c(C#N)c(-c1ccc(S(=O)(=O)N[C@@H](C)C(F)(F)F)cn1)n2-c1ccccc1` [compound 921, 6-(3-cyano-5-methyl-1-phenyl-1H-indol-2-yl)-N-[(2S)-1,1,1-trifluoropropan-2-yl]pyridine-3-sulfonamide]: the melting point was 160 to 165 °C. The IC50 in data set [1] was less than 500 nM.
`C[C@H](NS(=O)(=O)c1ccc(-c2c(C#N)c3cc(C(F)(F)F)ccc3n2-c2ncccn2)nc1)C(F)(F)F` [compound 922, 6-[3-cyano-1-(pyrimidin-2-yl)-5-(trifluoromethyl)-1H-indol-2-yl]-N-[(2S)-1,1,1-trifluoropropan-2-yl]pyridine-3-sulfonamide]: the melting point is 180 to 183 °C. The IC50 in data set [1] was less than 500 nM.
The like results for `Cc1cccc(-n2c(-c3ccc(S(=O)(=O)N[C@@H](C)C(F)(F)F)cn3)c(C#N)c3cc(F)c(C)cc32)n1` [compound 923, 6-[3-cyano-5-fluoro-6-methyl-1-(6-methylpyridin-2-yl)-1H-indol-2-yl]-N-[(2S)-1,1,1-trifluoropropan-2-yl]pyridine-3-sulfonamide] were, in that order, 219 to 225 °C and less than 500 nM.
The like results for `Cc1cnc(-n2c(-c3ccc(S(=O)(=O)N[C@@H](C)C(F)(F)F)cn3)c(C#N)c3cc(F)c(C)cc32)nc1` [compound 925, 6-[3-cyano-5-fluoro-6-methyl-1-(5-methylpyrimidin-2-yl)-1H-indol-2-yl]-N-[(2S)-1,1,1-trifluoropropan-2-yl]pyridine-3-sulfonamide] were, in that order, 179 to 184 °C and less than 500 nM.
For `Cc1cc2c(cc1F)c(C#N)c(-c1ccc(S(=O)(=O)N[C@@H](C)C(F)(F)F)cn1)n2-c1cc(F)ccn1` [compound 926, 6-[3-cyano-5-fluoro-1-(4-fluoropyridin-2-yl)-6-methyl-1H-indol-2-yl]-N-[(2S)-1,1,1-trifluoropropan-2-yl]pyridine-3-sulfonamide] the same measures were 229 to 233 °C and less than 500 nM.
On to `CCc1cc2c(cc1F)c(C#N)c(-c1ccc(S(=O)(=O)N[C@@H](C)C(F)(F)F)cn1)n2-c1cnccn1` [compound 929, 6-[3-cyano-6-ethyl-5-fluoro-1-(pyrazin-2-yl)-1H-indol-2-yl]-N-[(2S)-1,1,1-trifluoropropan-2-yl]pyridine-3-sulfonamide], for which the melting point was in the range of 225 to 229 °C. For the same compound, the 50% inhibitory concentration (IC50) in data set [1] is less than 500 nM.
The like results for `CCc1cc2c(cc1F)c(C#N)c(-c1ccc(S(=O)(=O)N[C@@H](C)C(F)(F)F)cn1)n2-c1cccc(F)n1` [compound 930, 6-[3-cyano-6-ethyl-5-fluoro-1-(6-fluoropyridin-2-yl)-1H-indol-2-yl]-N-[(2S)-1,1,1-trifluoropropan-2-yl]pyridine-3-sulfonamide] were, in that order, 205 to 211 °C and less than 500 nM.
The like results for `CCc1cc2c(cc1F)c(C#N)c(-c1ccc(S(=O)(=O)N[C@@H](C)C(F)(F)F)cn1)n2-c1cc(C)ccn1` [compound 932, 6-[3-cyano-6-ethyl-5-fluoro-1-(4-methylpyridin-2-yl)-1H-indol-2-yl]-N-[(2S)-1,1,1-trifluoropropan-2-yl]pyridine-3-sulfonamide] were, in that order, 188 to 190 °C and less than 500 nM.
For `Cc1cc2c(cc1F)c(C#N)c(-c1ccc(S(=O)(=O)N[C@@H](C)C(F)(F)F)cn1)n2-c1ccncc1` [compound 933, 6-[3-cyano-5-fluoro-6-methyl-1-(pyridin-4-yl)-1H-indol-2-yl]-N-[(2S)-1,1,1-trifluoropropan-2-yl]pyridine-3-sulfonamide] the same measures were 250 to 255 °C and less than 500 nM.
As for `Cc1cc2c(cc1F)c(C#N)c(-c1ccc(S(=O)(=O)N[C@@H](C)C(F)(F)F)cn1)n2-c1nccs1` [compound 934, 6-[3-cyano-5-fluoro-6-methyl-1-(1,3-thiazol-2-yl)-1H-indol-2-yl]-N-[(2S)-1,1,1-trifluoropropan-2-yl]pyridine-3-sulfonamide], the melting point was in the range of 203 to 208 °C. For the same compound, the IC50 in data set [1] is less than 500 nM.
Consider `CCc1cc2c(cc1F)c(C#N)c(-c1ccc(S(=O)(=O)N[C@@H](C)C(F)(F)F)cn1)n2-c1nccs1` [compound 935, 6-[3-cyano-6-ethyl-5-fluoro-1-(1,3-thiazol-2-yl)-1H-indol-2-yl]-N-[(2S)-1,1,1-trifluoropropan-2-yl]pyridine-3-sulfonamide], for which the melting point lay in the range of 187 to 191 °C. Besides, the IC50 in data set [1] was less than 500 nM.
Turning to `CC(C)n1c(-c2ccc(S(=O)(=O)N[C@@H](C)C(F)(F)F)cn2)c(C#N)c2cc(F)c(OC(F)F)cc21` [compound 936, 6-[3-cyano-6-(difluoromethoxy)-5-fluoro-1-(propan-2-yl)-1H-indol-2-yl]-N-[(2S)-1,1,1-trifluoropropan-2-yl]pyridine-3-sulfonamide], the melting point lay in the range of 184 to 188 °C. The IC50 in data set [1] was less than 500 nM.
For `CC(C)Cn1c(-c2ccc(S(=O)(=O)N[C@@H](C)C(F)(F)F)cn2)c(C#N)c2cc(F)c(OC(F)F)cc21` [compound 937, 6-[3-cyano-6-(difluoromethoxy)-5-fluoro-1-(2-methylpropyl)-1H-indol-2-yl]-N-[(2S)-1,1,1-trifluoropropan-2-yl]pyridine-3-sulfonamide] the same measures were 130 to 134 °C and less than 500 nM.
The like results for `CC(C)(C)NS(=O)(=O)c1ccc(-c2c(C#N)c3cc(F)c(Br)cc3n2-c2ncccn2)nc1` [compound 938, 6-[6-bromo-3-cyano-5-fluoro-1-(pyrimidin-2-yl)-1H-indol-2-yl]-N-tert-butylpyridine-3-sulfonamide] were, in that order, 266 to 268 °C and less than 500 nM.
The like results for `C[C@H](NS(=O)(=O)c1ccc(-c2c(C#N)c3cc(F)c(OC(F)F)cc3n2CCO)nc1)C(F)(F)F` [compound 940, 6-[3-cyano-6-(difluoromethoxy)-5-fluoro-1-(2-hydroxyethyl)-1H-indol-2-yl]-N-[(2S)-1,1,1-trifluoropropan-2-yl]pyridine-3-sulfonamide] were, in that order, 203 to 208 °C and 500 to 2000 nM.
In the case of `CCc1cc2c(cc1F)c(C#N)c(-c1ccc(S(=O)(=O)N[C@@H](C)C(F)(F)F)cn1)n2-c1ncc(Cl)cn1` [compound 942, 6-[1-(5-chloropyrimidin-2-yl)-3-cyano-6-ethyl-5-fluoro-1H-indol-2-yl]-N-[(2S)-1,1,1-trifluoropropan-2-yl]pyridine-3-sulfonamide], the melting point lay in the range of 222 to 229 °C. The IC50 in data set [1] was less than 500 nM.
The like results for `CCc1cc2c(cc1F)c(C#N)c(-c1ccc(S(=O)(=O)N[C@@H](C)C(F)(F)F)cn1)n2-c1ccnc(C)n1` [compound 943, 6-[3-cyano-6-ethyl-5-fluoro-1-(2-methylpyrimidin-4-yl)-1H-indol-2-yl]-N-[(2S)-1,1,1-trifluoropropan-2-yl]pyridine-3-sulfonamide] were, in that order, 138 to 146 °C and 500 to 2000 nM.
The like results for `Cc1cc2c(cc1F)cc(-c1ccc(S(=O)(=O)N[C@@H](C)C(F)(F)F)cn1)n2-c1ccnc(F)c1` [compound 944, 6-[5-fluoro-1-(2-fluoropyridin-4-yl)-6-methyl-1H-indol-2-yl]-N-[(2S)-1,1,1-trifluoropropan-2-yl]pyridine-3-sulfonamide] were, in that order, 176 to 180 °C and 500 to 2000 nM.
